Results as given in patent US9321776B2, “Isochromene derivatives as phoshoinositide 3-kinases inhibitors” (CHIESI FARMACEUTICI S.p.A., priority 2013, dated 2016).
Structures can show the parent of a compound that is named as a salt.

How the values were obtained:
Test in all cases: PI3K enzyme inhibitory activity in the cell free assay (ADP-Glo Kinase Assay)
Assay type in all cases: biochemical
PI3Kβ = molecular target: T1, PI3Kβ (Homo sapiens, UniProt P42338); settings: human recombinant PI3Kβ, ATP 100 μM; read-out: PI3K beta inhibition
T1 construct: purchased Millipore Ltd (Billerica, Mass.)
T1 sequence (P42338 whole entry): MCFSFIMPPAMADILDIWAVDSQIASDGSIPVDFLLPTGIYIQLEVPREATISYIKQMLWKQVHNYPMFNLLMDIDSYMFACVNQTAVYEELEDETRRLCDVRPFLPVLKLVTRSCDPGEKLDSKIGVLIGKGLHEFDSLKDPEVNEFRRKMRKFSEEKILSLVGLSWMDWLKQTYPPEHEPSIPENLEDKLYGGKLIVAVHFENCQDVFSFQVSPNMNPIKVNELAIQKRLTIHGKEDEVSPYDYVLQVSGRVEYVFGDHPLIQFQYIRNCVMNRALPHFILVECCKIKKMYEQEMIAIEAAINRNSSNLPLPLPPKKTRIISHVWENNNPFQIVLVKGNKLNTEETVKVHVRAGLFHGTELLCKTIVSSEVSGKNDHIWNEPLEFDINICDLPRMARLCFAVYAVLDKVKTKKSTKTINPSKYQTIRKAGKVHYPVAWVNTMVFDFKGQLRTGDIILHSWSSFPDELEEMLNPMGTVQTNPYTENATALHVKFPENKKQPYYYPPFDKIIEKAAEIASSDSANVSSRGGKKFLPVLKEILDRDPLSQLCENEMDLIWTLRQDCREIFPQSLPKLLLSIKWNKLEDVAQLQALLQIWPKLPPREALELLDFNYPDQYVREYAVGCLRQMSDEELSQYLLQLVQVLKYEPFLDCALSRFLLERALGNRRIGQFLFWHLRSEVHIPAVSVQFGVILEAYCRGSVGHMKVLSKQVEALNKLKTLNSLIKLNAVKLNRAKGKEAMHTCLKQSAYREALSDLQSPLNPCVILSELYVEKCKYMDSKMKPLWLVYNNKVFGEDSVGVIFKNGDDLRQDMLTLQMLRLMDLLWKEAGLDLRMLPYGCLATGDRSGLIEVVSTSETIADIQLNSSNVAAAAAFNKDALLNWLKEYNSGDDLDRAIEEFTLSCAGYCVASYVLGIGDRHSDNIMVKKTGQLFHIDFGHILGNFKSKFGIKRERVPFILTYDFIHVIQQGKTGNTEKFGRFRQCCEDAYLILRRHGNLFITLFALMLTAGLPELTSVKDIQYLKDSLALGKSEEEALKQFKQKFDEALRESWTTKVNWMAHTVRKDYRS

PI3Kγ = molecular target: T2, PI3Kγ (Homo sapiens, UniProt P48736); settings: human recombinant PI3Kγ, ATP 30 μM; read-out: PI3K gamma inhibition
T2 construct: purchased Millipore Ltd (Billerica, Mass.)
T2 sequence (P48736 whole entry): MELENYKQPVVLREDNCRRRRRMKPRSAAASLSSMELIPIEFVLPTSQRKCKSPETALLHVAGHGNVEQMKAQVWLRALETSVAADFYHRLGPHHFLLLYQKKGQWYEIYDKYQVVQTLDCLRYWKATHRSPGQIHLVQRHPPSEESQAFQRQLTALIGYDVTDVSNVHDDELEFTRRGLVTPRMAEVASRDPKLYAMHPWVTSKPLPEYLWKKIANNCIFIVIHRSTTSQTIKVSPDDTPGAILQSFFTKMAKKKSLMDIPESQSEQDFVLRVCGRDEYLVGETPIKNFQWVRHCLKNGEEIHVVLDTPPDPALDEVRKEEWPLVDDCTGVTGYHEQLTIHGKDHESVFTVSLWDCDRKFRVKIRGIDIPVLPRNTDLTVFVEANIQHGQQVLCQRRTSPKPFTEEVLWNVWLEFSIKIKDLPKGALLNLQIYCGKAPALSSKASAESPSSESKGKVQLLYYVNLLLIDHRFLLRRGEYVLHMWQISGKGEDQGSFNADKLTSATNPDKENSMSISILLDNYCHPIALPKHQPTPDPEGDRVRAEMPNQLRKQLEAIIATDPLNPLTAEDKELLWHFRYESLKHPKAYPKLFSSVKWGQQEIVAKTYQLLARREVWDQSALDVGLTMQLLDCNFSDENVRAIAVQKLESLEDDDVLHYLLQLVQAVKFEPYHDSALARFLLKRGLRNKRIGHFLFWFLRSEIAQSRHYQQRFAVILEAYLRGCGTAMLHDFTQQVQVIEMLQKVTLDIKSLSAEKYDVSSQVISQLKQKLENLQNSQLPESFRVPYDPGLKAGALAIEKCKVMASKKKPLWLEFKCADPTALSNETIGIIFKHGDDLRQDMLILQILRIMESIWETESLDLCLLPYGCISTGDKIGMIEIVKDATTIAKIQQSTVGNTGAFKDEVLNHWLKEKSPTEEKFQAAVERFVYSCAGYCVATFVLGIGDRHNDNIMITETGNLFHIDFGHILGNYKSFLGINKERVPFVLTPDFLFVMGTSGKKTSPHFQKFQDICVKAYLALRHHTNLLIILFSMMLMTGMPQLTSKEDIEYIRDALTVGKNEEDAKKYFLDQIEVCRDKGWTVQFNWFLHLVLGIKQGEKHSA

PI3Kα = molecular target: T3, PI3Kα (Homo sapiens, UniProt P42336); settings: human recombinant PI3Kα, ATP 50 μM; read-out: PI3K alpha inhibition
T3 construct: purchased Millipore Ltd (Billerica, Mass.)
T3 sequence (P42336 whole entry): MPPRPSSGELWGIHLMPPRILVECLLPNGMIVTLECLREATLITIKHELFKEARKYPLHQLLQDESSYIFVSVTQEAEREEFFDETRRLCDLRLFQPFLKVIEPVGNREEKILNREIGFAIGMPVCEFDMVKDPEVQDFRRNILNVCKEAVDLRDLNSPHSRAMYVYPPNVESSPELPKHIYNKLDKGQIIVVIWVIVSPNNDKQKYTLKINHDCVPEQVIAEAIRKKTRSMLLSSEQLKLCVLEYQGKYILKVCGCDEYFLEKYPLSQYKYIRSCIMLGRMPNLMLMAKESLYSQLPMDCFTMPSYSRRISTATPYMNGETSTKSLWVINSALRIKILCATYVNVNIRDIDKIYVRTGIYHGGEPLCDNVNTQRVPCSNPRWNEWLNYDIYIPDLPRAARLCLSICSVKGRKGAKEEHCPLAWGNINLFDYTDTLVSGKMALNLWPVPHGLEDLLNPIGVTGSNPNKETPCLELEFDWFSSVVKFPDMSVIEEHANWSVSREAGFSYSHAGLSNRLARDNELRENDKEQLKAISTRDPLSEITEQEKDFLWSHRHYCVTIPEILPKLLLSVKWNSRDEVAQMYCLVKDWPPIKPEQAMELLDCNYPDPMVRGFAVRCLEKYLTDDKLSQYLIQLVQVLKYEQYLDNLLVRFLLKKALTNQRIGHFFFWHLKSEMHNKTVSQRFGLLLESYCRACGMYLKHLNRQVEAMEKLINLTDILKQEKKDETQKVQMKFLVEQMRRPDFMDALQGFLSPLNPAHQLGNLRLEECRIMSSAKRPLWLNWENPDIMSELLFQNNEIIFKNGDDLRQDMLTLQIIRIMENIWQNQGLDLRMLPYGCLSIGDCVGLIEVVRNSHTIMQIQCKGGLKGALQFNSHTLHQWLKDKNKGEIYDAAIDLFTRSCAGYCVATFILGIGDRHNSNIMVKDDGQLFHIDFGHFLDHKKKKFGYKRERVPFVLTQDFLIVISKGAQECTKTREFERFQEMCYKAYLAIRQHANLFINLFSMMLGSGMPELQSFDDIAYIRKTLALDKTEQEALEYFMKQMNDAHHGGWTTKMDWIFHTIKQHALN

PI3Kδ = molecular target: T4, PI3Kδ (Homo sapiens, UniProt O00329); settings: human recombinant PI3Kδ, ATP 80 μM; read-out: PI3K delta inhibition
T4 construct: purchased Millipore Ltd (Billerica, Mass.)
T4 sequence (O00329 1-1044): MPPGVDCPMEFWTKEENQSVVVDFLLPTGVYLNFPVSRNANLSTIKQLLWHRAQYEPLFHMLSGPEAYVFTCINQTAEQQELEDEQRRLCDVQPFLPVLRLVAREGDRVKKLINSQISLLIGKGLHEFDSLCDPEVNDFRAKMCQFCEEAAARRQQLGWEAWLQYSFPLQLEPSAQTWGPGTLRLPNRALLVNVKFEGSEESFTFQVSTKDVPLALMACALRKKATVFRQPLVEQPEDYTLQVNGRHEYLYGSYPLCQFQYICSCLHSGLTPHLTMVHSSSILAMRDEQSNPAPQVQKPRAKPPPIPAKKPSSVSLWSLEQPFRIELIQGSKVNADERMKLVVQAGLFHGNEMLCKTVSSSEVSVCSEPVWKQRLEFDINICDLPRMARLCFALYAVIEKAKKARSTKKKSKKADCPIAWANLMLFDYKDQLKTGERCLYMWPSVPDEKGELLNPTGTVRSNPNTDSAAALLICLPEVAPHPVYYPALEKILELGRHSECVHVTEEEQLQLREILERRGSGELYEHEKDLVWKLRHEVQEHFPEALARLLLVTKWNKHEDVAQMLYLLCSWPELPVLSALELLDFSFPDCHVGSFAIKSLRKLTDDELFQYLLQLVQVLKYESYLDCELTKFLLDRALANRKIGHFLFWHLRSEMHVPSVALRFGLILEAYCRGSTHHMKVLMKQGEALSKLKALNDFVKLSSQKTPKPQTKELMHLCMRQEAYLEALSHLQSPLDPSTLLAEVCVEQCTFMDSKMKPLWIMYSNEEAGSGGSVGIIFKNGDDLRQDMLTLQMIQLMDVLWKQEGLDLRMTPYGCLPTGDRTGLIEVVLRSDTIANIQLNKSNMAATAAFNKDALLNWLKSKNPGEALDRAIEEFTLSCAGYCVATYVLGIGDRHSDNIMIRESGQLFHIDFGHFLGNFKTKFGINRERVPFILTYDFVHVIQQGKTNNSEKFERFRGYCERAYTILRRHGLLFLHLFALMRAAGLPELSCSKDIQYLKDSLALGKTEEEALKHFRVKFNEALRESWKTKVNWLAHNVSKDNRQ

CC(c1oc(=O)c2ccccc2c1C1=CC(C)(C)NC(C)(C)C1)n1nc(-c2cncc(O)c2)c2c(N)ncnc21 (centres unmarked) [Example 145, 3-(1-(4-amino-3-(5-hydroxypyridin-3-yl)-1H-pyrazolo[3,4-d]pyrimidin-1-yl)ethyl)-4-(2,2,6,6-tetramethyl-1,2,3,6-tetrahydropyridin-4-yl)-1H-isochromen-1-one dihydrochloride]
IC50 (PI3Kβ): 10 to 1000 nM
IC50 (PI3Kγ): 10 to 1000 nM
IC50 (PI3Kα): 10 to 1000 nM
IC50 (PI3Kδ): < 10 nM

CC(c1oc(=O)c2ccccc2c1C1=CCN(C(=O)CCCN(C)C)CC1)n1nc(-c2cc(O)cc(F)c2)c2c(N)ncnc21 (centres unmarked) [Example 146, 3-(1-(4-amino-3-(3-fluoro-5-hydroxyphenyl)-1H-pyrazolo[3,4-d]pyrimidin-1-yl)ethyl)-4-(1-(4-(dimethylamino)butanoyl)-1,2,3,6-tetrahydropyridin-4-yl)-1H-isochromen-1-one formate]
IC50 (PI3Kβ): 10 to 1000 nM
IC50 (PI3Kγ): 10 to 1000 nM
IC50 (PI3Kα): > 1000 nM
IC50 (PI3Kδ): < 10 nM

CC(c1oc(=O)c2ccccc2c1C1=CCN(C(=O)CN(C)C)CC1)n1nc(-c2cc(O)cc(F)c2)c2c(N)ncnc21 (centres unmarked) [Example 147, 3-(1-(4-amino-3-(3-fluoro-5-hydroxyphenyl)-1H-pyrazolo[3,4-d]pyrimidin-1-yl)ethyl)-4-(1-(2-(dimethylamino)acetyl)-1,2,3,6-tetrahydropyridin-4-yl)-1H-isochromen-1-one formate]
IC50 (PI3Kβ): 10 to 1000 nM
IC50 (PI3Kγ): 10 to 1000 nM
IC50 (PI3Kα): 10 to 1000 nM
IC50 (PI3Kδ): < 10 nM

CC(c1oc(=O)c2ccccc2c1C1=CCN(C(=O)C2CCN(C)CC2)CC1)n1nc(-c2cc(O)cc(F)c2)c2c(N)ncnc21 (centres unmarked) [Example 148, 3-(1-(4-amino-3-(3-fluoro-5-hydroxyphenyl)-1H-pyrazolo[3,4-d]pyrimidin-1-yl)ethyl)-4-(1-(1-methylpiperidine-4-carbonyl)-1,2,3,6-tetrahydropyridin-4-yl)-1H-isochromen-1-one formate]
IC50 (PI3Kβ): 10 to 1000 nM
IC50 (PI3Kγ): 10 to 1000 nM
IC50 (PI3Kα): > 1000 nM
IC50 (PI3Kδ): < 10 nM

CC(c1oc(=O)c2ccccc2c1C1=CCN(C(=O)C2CN(C)C2)CC1)n1nc(-c2cc(O)cc(F)c2)c2c(N)ncnc21 (centres unmarked) [Example 151, 3-(1-(4-amino-3-(3-fluoro-5-hydroxyphenyl)-1H-pyrazolo[3,4-d]pyrimidin-1-yl)ethyl)-4-(1-(1-methylazetidine-3-carbonyl)-1,2,3,6-tetrahydropyridin-4-yl)-1H-isochromen-1-one formate]
IC50 (PI3Kβ): 10 to 1000 nM
IC50 (PI3Kγ): 10 to 1000 nM
IC50 (PI3Kα): > 1000 nM
IC50 (PI3Kδ): 10 to 1000 nM

CC(c1oc(=O)c2ccccc2c1C1=CCNCC1)n1nc(-c2cc(O)cc(Cl)c2)c2c(N)ncnc21 (centres unmarked) [Example 152, 3-(1-(4-amino-3-(3-chloro-5-hydroxyphenyl)-1H-pyrazolo[3,4-d]pyrimidin-1-yl)ethyl)-4-(1,2,3,6-tetrahydropyridin-4-yl)-1H-isochromen-1-one formate]
IC50 (PI3Kβ): 10 to 1000 nM
IC50 (PI3Kγ): 10 to 1000 nM
IC50 (PI3Kα): 10 to 1000 nM
IC50 (PI3Kδ): < 10 nM

CC(c1oc(=O)c2ccccc2c1C1=CCNCC1)n1nc(-c2cc(O)cc(C(F)(F)F)c2)c2c(N)ncnc21 (centres unmarked) [Example 153, 3-(1-(4-amino-3-(3-hydroxy-5-(trifluoromethyl)phenyl)-1H-pyrazolo[3,4-d]pyrimidin-1-yl)ethyl)-4-(1,2,3,6-tetrahydropyridin-4-yl)-1H-isochromen-1-one formate]
IC50 (PI3Kβ): 10 to 1000 nM
IC50 (PI3Kγ): > 1000 nM
IC50 (PI3Kα): > 1000 nM
IC50 (PI3Kδ): < 10 nM

CC(c1oc(=O)c2ccccc2c1C1=CCN(C)CC1)n1nc(-c2cc(O)cc(Cl)c2)c2c(N)ncnc21 (centres unmarked) [Example 154, 3-(1-(4-amino-3-(3-chloro-5-hydroxyphenyl)-1H-pyrazolo[3,4-d]pyrimidin-1-yl)ethyl)-4-(1-methyl-1,2,3,6-tetrahydropyridin-4-yl)-1H-isochromen-1-one formate]
IC50 (PI3Kβ): 10 to 1000 nM
IC50 (PI3Kγ): > 1000 nM
IC50 (PI3Kα): > 1000 nM
IC50 (PI3Kδ): < 10 nM

CC(c1oc(=O)c2ccccc2c1C1=CCN(C)CC1)n1nc(-c2cc(O)cc(C(F)(F)F)c2)c2c(N)ncnc21 (centres unmarked) [Example 155, 3-(1-(4-amino-3-(3-hydroxy-5-(trifluoromethyl)phenyl)-1H-pyrazolo[3,4-d]pyrimidin-1-yl)ethyl)-4-(1-methyl-1,2,3,6-tetrahydropyridin-4-yl)-1H-isochromen-1-one formate]
IC50 (PI3Kβ): 10 to 1000 nM
IC50 (PI3Kγ): > 1000 nM
IC50 (PI3Kα): > 1000 nM
IC50 (PI3Kδ): 10 to 1000 nM

CC(c1oc(=O)c2ccccc2c1C1=CCN(C2CNC2)CC1)n1nc(-c2cc(O)cc(F)c2)c2c(N)ncnc21 (centres unmarked) [Example 156, 3-(1-(4-amino-3-(3-fluoro-5-hydroxyphenyl)-1H-pyrazolo[3,4-d]pyrimidin-1-yl)ethyl)-4-(1-(azetidin-3-yl)-1,2,3,6-tetrahydropyridin-4-yl)-1H-isochromen-1-one dihydrochloride]
IC50 (PI3Kβ): 10 to 1000 nM
IC50 (PI3Kγ): 10 to 1000 nM
IC50 (PI3Kα): > 1000 nM
IC50 (PI3Kδ): < 10 nM

CC(c1oc(=O)c2ccccc2c1C1=CCN(C2CN(CC3CC3)C2)CC1)n1nc(-c2cc(O)cc(F)c2)c2c(N)ncnc21 (centres unmarked) [Example 157, 3-(1-(4-amino-3-(3-fluoro-5-hydroxyphenyl)-1H-pyrazolo[3,4-d]pyrimidin-1-yl)ethyl)-4-(1-(1-(cyclopropylmethyl)azetidin-3-yl)-1,2,3,6-tetrahydropyridin-4-yl)-1H-isochromen-1-one dihydrochloride]
IC50 (PI3Kβ): 10 to 1000 nM
IC50 (PI3Kγ): 10 to 1000 nM
IC50 (PI3Kα): > 1000 nM
IC50 (PI3Kδ): < 10 nM

CC(c1oc(=O)c2ccccc2c1-c1ccccc1)n1nc(-c2cnc(C(F)(F)F)c(O)c2)c2c(N)ncnc21 (centres unmarked) [Example 161, 3-(1-(4-amino-3-(5-hydroxy-6-(trifluoromethyl)pyridin-3-yl)-1H-pyrazolo[3,4-d]pyrimidin-1-yl)ethyl)-4-phenyl-1H-isochromen-1-one]
IC50 (PI3Kβ): > 1000 nM
IC50 (PI3Kγ): > 1000 nM
IC50 (PI3Kα): > 1000 nM
IC50 (PI3Kδ): < 10 nM

CC(c1oc(=O)c2ccc(Cl)cc2c1-c1ccccc1)n1nc(-c2cc(O)cc(F)c2)c2c(N)ncnc21 (centres unmarked) [Example 164, 3-(1-(4-amino-3-(3-fluoro-5-hydroxyphenyl)-1H-pyrazolo[3,4-d]pyrimidin-1-yl)ethyl)-6-chloro-4-phenyl-1H-isochromen-1-one]
IC50 (PI3Kβ): 10 to 1000 nM
IC50 (PI3Kγ): 10 to 1000 nM
IC50 (PI3Kα): > 1000 nM
IC50 (PI3Kδ): < 10 nM

CC(c1oc(=O)c2ccc(F)cc2c1-c1ccccc1)n1nc(-c2cc(O)cc(F)c2)c2c(N)ncnc21 (centres unmarked) [Example 165, 3-(1-(4-amino-3-(3-fluoro-5-hydroxyphenyl)-1H-pyrazolo[3,4-d]pyrimidin-1-yl)ethyl)-6-fluoro-4-phenyl-1H-isochromen-1-one]
IC50 (PI3Kβ): 10 to 1000 nM
IC50 (PI3Kγ): 10 to 1000 nM
IC50 (PI3Kα): > 1000 nM
IC50 (PI3Kδ): < 10 nM

CC(c1oc(=O)c2ccccc2c1C1=CCCN(Cc2ccccc2)C1)n1nc(-c2cc(O)cc(F)c2)c2c(N)ncnc21 (centres unmarked) [Example 169, 3-(1-(4-amino-3-(3-fluoro-5-hydroxyphenyl)-1H-pyrazolo[3,4-d]pyrimidin-1-yl)ethyl)-4-(1-benzyl-1,2,5,6-tetrahydropyridin-3-yl)-1H-isochromen-1-one hydrochloride]
IC50 (PI3Kβ): 10 to 1000 nM
IC50 (PI3Kγ): 10 to 1000 nM
IC50 (PI3Kα): > 1000 nM
IC50 (PI3Kδ): < 10 nM

CC(c1oc(=O)c2ccccc2c1-c1ccccn1)n1nc(-c2cc(O)cc(F)c2)c2c(N)ncnc21 (centres unmarked) [Example 170, 3-(1-(4-amino-3-(3-fluoro-5-hydroxyphenyl)-1H-pyrazolo[3,4-d]pyrimidin-1-yl)ethyl)-4-(pyridin-2-yl)-1H-isochromen-1-one hydrochloride]
IC50 (PI3Kβ): 10 to 1000 nM
IC50 (PI3Kγ): 10 to 1000 nM
IC50 (PI3Kα): 10 to 1000 nM
IC50 (PI3Kδ): < 10 nM

CC(c1oc(=O)c2ccccc2c1C1=CCCN(C2CCN(C)CC2)C1)n1nc(-c2cc(O)cc(F)c2)c2c(N)ncnc21 (centres unmarked) [Example 172, 3-(1-(4-amino-3-(3-fluoro-5-hydroxyphenyl)-1H-pyrazolo[3,4-d]pyrimidin-1-yl)ethyl)-4-(1-(1-methylpiperidin-4-yl)-1,2,5,6-tetrahydropyridin-3-yl)-1H-isochromen-1-one dihydrochloride]
IC50 (PI3Kβ): 10 to 1000 nM
IC50 (PI3Kγ): 10 to 1000 nM
IC50 (PI3Kα): 10 to 1000 nM
IC50 (PI3Kδ): 10 to 1000 nM
